Assay results published in ChEMBL document CHEMBL3351765, “Recent progress in sodium channel modulators for pain” (Bioorg Med Chem Lett, 2014).
Values belong to the compound of their own block, whether it stands above or below them.

Key:
[1] = molecular target: T1, Sodium channel protein type 9 subunit alpha (Homo sapiens, UniProt Q15858); assay: Inhibition of human Nav1.7 expressed in HEK293 cells by FLIPR method; type: cell-based
[2] = molecular target: T1, Sodium channel protein type 9 subunit alpha; assay: Inhibition of human Nav1.7 expressed in HEK cells by patch-clamp method; type: cell-based, HEK293
[3] = molecular target: T2, Sodium channel protein type 5 subunit alpha (Homo sapiens, UniProt Q14524); assay: Inhibition of Nav1.5 (unknown origin)
T2 sequence (Q14524 whole entry): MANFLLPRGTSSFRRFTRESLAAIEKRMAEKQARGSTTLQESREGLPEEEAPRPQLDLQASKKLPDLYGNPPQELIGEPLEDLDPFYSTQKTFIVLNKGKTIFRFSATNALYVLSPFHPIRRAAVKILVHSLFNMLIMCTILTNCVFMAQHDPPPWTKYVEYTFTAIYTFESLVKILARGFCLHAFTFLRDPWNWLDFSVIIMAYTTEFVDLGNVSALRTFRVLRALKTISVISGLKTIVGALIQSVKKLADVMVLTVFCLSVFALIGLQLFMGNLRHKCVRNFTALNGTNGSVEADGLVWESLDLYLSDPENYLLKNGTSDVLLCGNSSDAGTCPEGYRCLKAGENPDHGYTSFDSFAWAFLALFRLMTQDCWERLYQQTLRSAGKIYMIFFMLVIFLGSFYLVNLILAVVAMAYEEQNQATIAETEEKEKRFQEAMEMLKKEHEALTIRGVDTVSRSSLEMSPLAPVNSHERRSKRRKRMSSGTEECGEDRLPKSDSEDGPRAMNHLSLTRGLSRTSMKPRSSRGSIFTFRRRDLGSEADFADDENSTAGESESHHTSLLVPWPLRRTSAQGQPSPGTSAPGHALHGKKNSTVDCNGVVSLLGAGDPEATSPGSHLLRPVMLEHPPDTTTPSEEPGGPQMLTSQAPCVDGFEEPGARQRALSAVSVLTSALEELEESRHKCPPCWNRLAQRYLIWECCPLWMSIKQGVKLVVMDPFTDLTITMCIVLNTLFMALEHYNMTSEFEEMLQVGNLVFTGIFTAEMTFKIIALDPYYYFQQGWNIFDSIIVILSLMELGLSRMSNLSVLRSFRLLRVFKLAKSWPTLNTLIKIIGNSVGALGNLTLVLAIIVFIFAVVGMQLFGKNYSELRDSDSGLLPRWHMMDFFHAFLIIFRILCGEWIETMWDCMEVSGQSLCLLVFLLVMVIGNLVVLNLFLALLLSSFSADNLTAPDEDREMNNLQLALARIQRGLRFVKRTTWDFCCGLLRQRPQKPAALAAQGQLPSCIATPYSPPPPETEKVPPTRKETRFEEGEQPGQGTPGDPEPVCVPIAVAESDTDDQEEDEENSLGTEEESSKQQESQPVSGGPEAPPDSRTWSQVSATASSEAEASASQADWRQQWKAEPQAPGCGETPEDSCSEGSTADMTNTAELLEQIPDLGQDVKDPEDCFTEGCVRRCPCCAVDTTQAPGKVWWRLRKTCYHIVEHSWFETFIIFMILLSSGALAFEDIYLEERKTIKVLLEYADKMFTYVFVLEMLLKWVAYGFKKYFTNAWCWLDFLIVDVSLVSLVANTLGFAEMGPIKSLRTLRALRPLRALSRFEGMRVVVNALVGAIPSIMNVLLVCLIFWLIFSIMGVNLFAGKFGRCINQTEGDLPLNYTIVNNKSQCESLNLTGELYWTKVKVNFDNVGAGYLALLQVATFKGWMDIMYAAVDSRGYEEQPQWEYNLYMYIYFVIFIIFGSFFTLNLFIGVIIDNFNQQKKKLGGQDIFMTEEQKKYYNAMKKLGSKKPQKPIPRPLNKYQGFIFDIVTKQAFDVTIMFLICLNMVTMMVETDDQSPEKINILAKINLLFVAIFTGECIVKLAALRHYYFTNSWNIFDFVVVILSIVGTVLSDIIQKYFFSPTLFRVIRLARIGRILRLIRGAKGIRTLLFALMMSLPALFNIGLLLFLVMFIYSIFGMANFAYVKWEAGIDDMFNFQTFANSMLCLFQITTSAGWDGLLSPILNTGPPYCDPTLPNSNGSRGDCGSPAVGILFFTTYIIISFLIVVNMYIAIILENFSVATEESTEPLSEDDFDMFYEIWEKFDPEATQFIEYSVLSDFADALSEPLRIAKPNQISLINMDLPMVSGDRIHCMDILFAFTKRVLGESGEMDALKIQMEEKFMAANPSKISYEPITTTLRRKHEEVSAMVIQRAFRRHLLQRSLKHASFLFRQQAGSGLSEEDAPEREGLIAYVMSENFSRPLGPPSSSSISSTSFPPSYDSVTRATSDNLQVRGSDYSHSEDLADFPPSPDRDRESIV

[4] = molecular target: T2, Sodium channel protein type 5 subunit alpha; assay: Inhibition of Nav1.5 (unknown origin) expressed in HEK293 cells by IonWorks patch-clamp method; type: cell-based
[5] = molecular target: T1, Sodium channel protein type 9 subunit alpha; assay: Inhibition of human Nav1.7 expressed in HEK cells by whole-cell patch-clamp technique; type: cell-based, HEK293
HEK293 = assay: Selectivity ratio of IC50 for human Nav1.5 to IC50 for human Nav1.7 expressed in HEK293 cells; type: cell-based
[6] = molecular target: T1, Sodium channel protein type 9 subunit alpha; assay: Inhibition of Nav1.7 (unknown origin)
[7] = molecular target: T1, Sodium channel protein type 9 subunit alpha; assay: Inhibition of human Nav1.7 expressed in HEK293 cells by electrophysiology method; type: cell-based
[8] = molecular target: T1, Sodium channel protein type 9 subunit alpha; assay: Inhibition of Nav1.7 (unknown origin) expressed in HEK293 cells by PatchXpress method; type: cell-based
[9] = molecular target: T1, Sodium channel protein type 9 subunit alpha; assay: Inhibition of human Nav1.7 expressed in HEK293 cells […] by QPatch method; type: cell-based

T1 sequence (Q15858 whole entry): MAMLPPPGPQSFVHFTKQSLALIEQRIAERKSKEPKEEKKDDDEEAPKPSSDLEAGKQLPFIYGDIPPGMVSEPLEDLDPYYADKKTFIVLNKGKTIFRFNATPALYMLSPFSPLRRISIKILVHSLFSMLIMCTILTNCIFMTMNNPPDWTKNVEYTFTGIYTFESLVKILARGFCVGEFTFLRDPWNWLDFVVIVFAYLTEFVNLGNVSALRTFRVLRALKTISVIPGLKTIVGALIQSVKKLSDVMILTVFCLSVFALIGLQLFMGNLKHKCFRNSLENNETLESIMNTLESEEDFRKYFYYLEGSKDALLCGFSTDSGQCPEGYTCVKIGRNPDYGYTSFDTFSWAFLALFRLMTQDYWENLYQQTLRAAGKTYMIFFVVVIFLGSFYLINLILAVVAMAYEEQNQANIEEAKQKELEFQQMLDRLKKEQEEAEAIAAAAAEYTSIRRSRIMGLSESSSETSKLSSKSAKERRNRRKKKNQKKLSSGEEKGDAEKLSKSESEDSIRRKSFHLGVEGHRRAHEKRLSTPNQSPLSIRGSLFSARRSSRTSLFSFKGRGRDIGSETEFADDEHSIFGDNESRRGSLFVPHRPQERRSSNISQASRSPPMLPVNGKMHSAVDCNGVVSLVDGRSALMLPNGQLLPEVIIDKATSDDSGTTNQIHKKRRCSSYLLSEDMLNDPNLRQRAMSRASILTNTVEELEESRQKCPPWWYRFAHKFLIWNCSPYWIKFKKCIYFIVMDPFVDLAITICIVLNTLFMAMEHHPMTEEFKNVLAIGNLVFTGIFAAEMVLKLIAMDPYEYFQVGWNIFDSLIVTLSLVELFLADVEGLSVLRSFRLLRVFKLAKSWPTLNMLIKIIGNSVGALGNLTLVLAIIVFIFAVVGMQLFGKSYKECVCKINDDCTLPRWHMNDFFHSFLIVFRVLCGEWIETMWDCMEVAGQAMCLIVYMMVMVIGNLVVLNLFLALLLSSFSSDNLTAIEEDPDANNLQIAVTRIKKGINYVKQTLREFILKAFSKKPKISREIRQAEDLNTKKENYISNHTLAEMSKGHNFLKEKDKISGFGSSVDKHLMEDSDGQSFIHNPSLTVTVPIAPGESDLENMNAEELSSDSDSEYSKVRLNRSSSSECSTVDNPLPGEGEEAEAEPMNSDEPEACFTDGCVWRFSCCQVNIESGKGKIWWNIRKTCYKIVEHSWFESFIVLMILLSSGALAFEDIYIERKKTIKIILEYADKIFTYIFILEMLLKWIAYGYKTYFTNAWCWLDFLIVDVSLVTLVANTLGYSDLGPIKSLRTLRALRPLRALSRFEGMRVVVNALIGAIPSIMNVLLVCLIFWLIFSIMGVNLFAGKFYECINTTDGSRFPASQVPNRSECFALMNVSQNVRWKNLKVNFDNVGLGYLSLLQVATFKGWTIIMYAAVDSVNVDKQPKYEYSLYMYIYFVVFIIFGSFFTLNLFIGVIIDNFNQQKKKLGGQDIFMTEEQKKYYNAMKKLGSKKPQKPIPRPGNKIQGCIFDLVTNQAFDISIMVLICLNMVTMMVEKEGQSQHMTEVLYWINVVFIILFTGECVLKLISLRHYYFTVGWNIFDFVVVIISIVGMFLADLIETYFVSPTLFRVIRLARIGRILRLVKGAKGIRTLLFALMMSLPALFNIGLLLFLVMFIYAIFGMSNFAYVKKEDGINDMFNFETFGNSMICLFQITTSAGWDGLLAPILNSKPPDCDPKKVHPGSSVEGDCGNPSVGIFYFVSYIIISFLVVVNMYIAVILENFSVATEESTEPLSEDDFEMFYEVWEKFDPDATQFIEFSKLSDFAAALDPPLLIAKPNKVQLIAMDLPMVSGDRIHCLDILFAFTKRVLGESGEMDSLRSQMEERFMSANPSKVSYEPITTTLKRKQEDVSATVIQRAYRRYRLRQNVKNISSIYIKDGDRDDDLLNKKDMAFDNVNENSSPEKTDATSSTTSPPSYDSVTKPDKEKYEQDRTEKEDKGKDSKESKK

- IC50 [1]: 620 nM
Structure (SMILES): Cc1oc2nc(-c3ccccc3Cl)nn2c1CNCCc1ccccc1Cl

- IC50 [1]: 1150 nM
Structure (SMILES): O=C(NCC1CCCCN1)c1ccc(Oc2cc(C(F)(F)F)cc(C(F)(F)F)c2)cc1 (centres undefined)

- IC50 [2]: < 2000 nM
Structure (SMILES): COc1cc(C(=O)N2CCC3(CC2)c2ccc(C(F)(F)F)n2CCN3C)ccc1OC(C)C

- IC50 [2]: < 2000 nM
Structure (SMILES): CCOC1CC(c2scnc2C)OC2(CCN(C(=O)c3ccc(OC(C)C)c(C)c3)CC2)C1 (centres undefined)

- IC50 [5]: 130 nM
Structure (SMILES): CC1(COc2ccc(-n3nc(C4CC4)c4cc(C(=O)NS(C)(=O)=O)ccc43)cn2)CC1

Further lines, the compound ahead of its results:

Structure (SMILES): CCCCCN1C(=O)COCC1c1cncc(-c2ccc(OC(F)(F)F)cc2)c1 (centres undefined)
- IC50 [1]: 770 nM

Structure (SMILES): COc1cc(C(=O)N2CCC3(CC2)CN(CC(F)F)CC(c2ccccn2)O3)ccc1OC(C)C (centres undefined)
- IC50 [2]: < 2000 nM

Structure (SMILES): Nc1noc2ccc(-c3cc(Cl)ccc3Oc3cc(F)c(S(=O)(=O)Nc4ncns4)cc3F)cc12
- IC50 [3]: > 1000 nM

Structure (SMILES): O=S(=O)(Nc1ncns1)c1ccc2c(c1)OCCN2c1ccc(C(F)(F)F)cc1Cl
- IC50 [4]: > 10000 nM

Structure (SMILES): CCOc1ncccc1-c1cc(C(=O)NS(C)(=O)=O)ccc1Oc1ccc(Cl)c(C(F)(F)F)c1
- IC50 [5]: 35 nM

Structure (SMILES): C[C@H](c1ccccc1C1(F)CNC1)n1c(=O)oc2cc(S(=O)(=O)Nc3nccs3)c(F)cc21
- Ratio IC50 (HEK293): 5540

Structure (SMILES): O=S(=O)(Nc1ncns1)c1cc(F)c(OC[C@@H]2CNCC[C@H]2c2ccc(Cl)cc2)cc1F
- IC50 [6]: 3.3 nM

Structure (SMILES): NC(=O)c1cnc(-c2ccc(Oc3cc(F)cc(Cl)c3)cc2)nc1[C@@H](O)CO
- Ki [7]: 27 nM
- IC50 [1]: 67 nM

Structure (SMILES): Cn1cc(-c2ccc(C(F)(F)F)cc2-c2cn[nH]c2)c2ccc(S(=O)(=O)Nc3ncns3)cc21
- IC50 [4]: > 10000 nM
- IC50 [8]: 38 nM

Structure (SMILES): Cc1ccc(OCC(C)C)c(-c2cccc([C@H]3CC[C@]4(CCN(C)C4=O)N3)c2)c1
- IC50 [9]: 398 nM

Structure (SMILES): CN(C)c1ccc(C(=O)NC2CC23CCN(c2ccccc2)CC3)c2ccccc12 (centres undefined)
- IC50 [1]: 237 nM

Structure (SMILES): O=S(=O)(Nc1ncns1)N1CCc2c(cccc2-c2ccc(C(F)(F)F)cc2C2=CCNCC2)C1
- IC50 [4]: > 10000 nM
